Legend:
wheat = test: Growth height of wheat, greenhouse (Example 7); assay type: in vivo, wheat (Opal variety); details: for Plant height relative: control 100
Text: (§1) In the greenhouse, the four cereals wheat ("Opal" variety), rye ("Petkuser"), barley ("Villa") and oats ("Flamingskrone") were sown in plastic dishes 11.5 cm in diameter in a sandy loam adequately supplied with nutrients. The active ingredients were applied at various rates to the soil and to the leaves. When applied to the soil, the active ingredient were sprayed onto the surface of the soil on the day of sowing; in the case of leaf treatment, the leaves were sprayed in the usual manner at a growth height of the plants of 10 cm. During the 18 day growth period, the treated plants grew much more slowly than the untreated control, a fact later confirmed by measurements of the stem length. Measurements were taken of 100 plants from each series.
(§2) The prior art agent used for comparison purposes was N-2-chloroethyl-N,N,N-trimethylammonium chloride (CCC; German Printed Application DAS No. 1,294,734).

barley = test: Growth height of barley, greenhouse (Example 9); assay type: in vivo, barley (Villa); details: for Plant height relative: control 100
Text: as §1, §2

spring barley = test: Stem length, lateral shoots and yield in spring barley (Example 12); assay type: in vivo; details: 3 kg/ha
Description: To examine the effect of the various substances on spring barley up to the maturity stage of the plants, an experiment was carried out in large pots. The plants were grown in quartz sand (fertilized with 2 g N as ammonium nitrate in 3 doses, 1 g P2 O5 as secondary sodium phosphate, 1.5 g K2 O as potassium sulfate, 0.5 g MgO as magnesium sulfate, 10 ml of a solution of trace elements, and 10 mg of iron as an iron complex). […] The treated plants were up to 10% shorter than the control, and yields were also slightly up.

rice = test: Action on rice (Example 23); assay type: in vivo; details: leaf; for Plant height: 66 days; for Plant height relative: control 100
Description: At a growth height of 11 to 13 cm the active ingredients were sprayed onto the leaves in the usual manner. The plants were measured after 66 days.

oats = test: Growth height of oats, greenhouse (Example 10); assay type: in vivo, oats (Flamingskrone); details: for Plant height relative: control 100
Text: as §1, §2

rye = test: Growth height of rye, greenhouse (Example 8); assay type: in vivo, rye (Petkuser); details: for Plant height relative: control 100
Text: as §1, §2

sunflowers = test: Action on sunflowers (Example 24); assay type: in vivo; details: for Plant height relative: control 100
Text: The active ingredients were applied both to the soil and to the leaves.

Hordeum vulgare = test: Growth height of young cereal plants (Example 11, Table A); assay type: in vivo; details: soil treatment
Text: (§3) The vessels used for the experiments were plastic pots having a volume of 1,130 cm^3 (Table A) or paraffined paper cups having a volume of 170 cm^3 (Table B). The pots and cups were filled with a sandy loam. The seeds of the test plants-separated by species-were sown shallow. Preemergence treatment (soil treatment) was effected immediately after sowing and before germination of the seeds. Seeds lying on the surface came into contact with the active ingredients. Postemergence treatment (leaf treatment) took place at an average growth height of the plants (depending on the rate of growth) of from 6 to 10 cm. The substances were suspended, emulsified or dissolved in water as diluent and applied by means of fine nozzles. The vessels were kept in the greenhouse in a temperature range of 12° C. to 25° C., and were regularly sprinkler irrigated for the duration of the experiment. The observation period was 6 to 8 weeks.

Triticum aestivum = test: as above; assay type: in vivo
Text: as §3

cotton = test: Induction of flowering and growth height of cotton, hydroponic (Example 18); assay type: in vivo; details: for Shoot length: 4 weeks; for No. of squares per vessel (3 plants): control 0, average of 3 vessels; for Shoot length rel.: control 100
Description: Cotton plants were subjected to hydroponic treatment under the same conditions as in Example 16. The active ingredients were added (1.25 mg/vessel=0.3 ppm and 5 mg/vessel=1.25 ppm) at a height of the plant of 15 to 18 cm. […] The results below are averages from 3 vessels, each of 3 plants.

Arachis hypogaea = test: Growth-regulating action, postemergence, greenhouse (Example 35, Table 1); assay type: in vivo; details: for growth height relative: control 100
Text: as §3
(§4) Further experiments were carried out in the greenhouse under the condition described in Example 11. […] As the plants which were examined liked the warmth (Eupghorbia geniculate, Arachis hypogaea, Cynodon dactylon), they were kept at from 20°-30° C. Cynodon dactylon from seed was cut once and the young growth treated postemergence.

Cynodon dactylon = test: as above; assay type: in vivo; details: for growth height relative: control 100
Text: as §3, §4

Euphorbia geniculata = test: Growth-regulating action, preemergence, greenhouse (Example 35, Table 2); assay type: in vivo; details: for growth height relative: control 100
Text: as §3, §4

SMILES: C[N+](C)(C)CCCl.[Cl-] [CCC, N-2-chloroethyl-N,N,N-trimethylammonium chloride, reference compound]
- Plant height (wheat; leaf, 0.125 kg/ha): 28.0 cm
- Plant height relative (wheat; leaf, 0.125 kg/ha): 93.3
- Plant height (wheat; leaf, 0.5 kg/ha): 26.0 cm
- Plant height relative (wheat; leaf, 0.5 kg/ha): 86.7
- Plant height (wheat; leaf, 1.0 kg/ha): 26.0 cm
- Plant height relative (wheat; leaf, 1.0 kg/ha): 86.7
- Plant height (wheat; leaf, 2.0 kg/ha): 23.0 cm
- Plant height relative (wheat; leaf, 2.0 kg/ha): 76.7
- Plant height (wheat; leaf, 4.0 kg/ha): 23.0 cm
- Plant height relative (wheat; leaf, 4.0 kg/ha): 76.7
- Plant height (wheat; soil, 0.5 kg/ha): 26.0 cm
- Plant height relative (wheat; soil, 0.5 kg/ha): 83.9
- Plant height (wheat; soil, 1.0 kg/ha): 24.5 cm
- Plant height relative (wheat; soil, 1.0 kg/ha): 79.0
- Plant height (wheat; soil, 2.0 kg/ha): 22.5 cm
- Plant height relative (wheat; soil, 2.0 kg/ha): 72.6
- Plant height (wheat; soil, 6.0 kg/ha): 22.0 cm
- Plant height relative (wheat; soil, 6.0 kg/ha): 71.0
- Plant height (barley; leaf, 0.125 kg/ha): 29.0 cm
- Plant height relative (barley; leaf, 0.125 kg/ha): 96.7
- Plant height (barley; leaf, 0.5 kg/ha): 28.5 cm
- Plant height relative (barley; leaf, 0.5 kg/ha): 95.0
- Plant height (barley; leaf, 1.0 kg/ha): 26.5 cm
- Plant height relative (barley; leaf, 1.0 kg/ha): 88.3
- Plant height (barley; leaf, 2.0 kg/ha): 27.0 cm
- Plant height relative (barley; leaf, 2.0 kg/ha): 90.0
- Plant height (barley; leaf, 4.0 kg/ha): 27.0 cm
- Plant height relative (barley; leaf, 4.0 kg/ha): 90.0
- Plant height (barley; soil, 0.5 kg/ha): 28.0 cm
- Plant height relative (barley; soil, 0.5 kg/ha): 88.9
- Plant height (barley; soil, 1.0 kg/ha): 27.0 cm
- Plant height relative (barley; soil, 1.0 kg/ha): 85.7
- Plant height (barley; soil, 2.0 kg/ha): 26.0 cm
- Plant height relative (barley; soil, 2.0 kg/ha): 82.5
- Plant height (barley; soil, 6.0 kg/ha): 25.0 cm
- Plant height relative (barley; soil, 6.0 kg/ha): 79.4
- Ear weight (spring barley): 95.0 g
- No. of lateral shoots (spring barley): 99
- Stem length (spring barley): 74.2 cm
- Ear weight relative (spring barley; control 100): 105.1
- No. of lateral shoots relative (spring barley; control 100): 106.5
- Stem length relative (spring barley; control 100): 96.5
- Plant height (rice; 1.0 kg/ha): 38.0 cm
- Plant height relative (rice; 1.0 kg/ha): 93.6
- Plant height (rice; 2.0 kg/ha): 40.5 cm
- Plant height relative (rice; 2.0 kg/ha): 99.8
- Plant height (rice; 4.0 kg/ha): 38.5 cm
- Plant height relative (rice; 4.0 kg/ha): 94.8
- Plant height (rice; 6.0 kg/ha): 40.0 cm
- Plant height relative (rice; 6.0 kg/ha): 98.5
- Plant height (oats; leaf, 0.125 kg/ha): 28.0 cm
- Plant height relative (oats; leaf, 0.125 kg/ha): 100
- Plant height (oats; leaf, 0.5 kg/ha): 28.5 cm
- Plant height relative (oats; leaf, 0.5 kg/ha): 101.8
- Plant height (oats; leaf, 1.0 kg/ha): 28.0 cm
- Plant height relative (oats; leaf, 1.0 kg/ha): 100
- Plant height (oats; leaf, 2.0 kg/ha): 27.0 cm
- Plant height relative (oats; leaf, 2.0 kg/ha): 96.4
- Plant height (oats; leaf, 4.0 kg/ha): 25.5 cm
- Plant height relative (oats; leaf, 4.0 kg/ha): 91.1
- Plant height (oats; soil, 0.5 kg/ha): 28.0 cm
- Plant height relative (oats; soil, 0.5 kg/ha): 100
- Plant height (oats; soil, 1.0 kg/ha): 28.0 cm
- Plant height relative (oats; soil, 1.0 kg/ha): 100
- Plant height (oats; soil, 2.0 kg/ha): 27.0 cm
- Plant height relative (oats; soil, 2.0 kg/ha): 96.4
- Plant height (oats; soil, 6.0 kg/ha): 26.0 cm
- Plant height relative (oats; soil, 6.0 kg/ha): 92.9
- Plant height (rye; leaf, 0.125 kg/ha): 29.0 cm
- Plant height relative (rye; leaf, 0.125 kg/ha): 98.3
- Plant height (rye; leaf, 0.5 kg/ha): 28.0 cm
- Plant height relative (rye; leaf, 0.5 kg/ha): 94.9
- Plant height (rye; leaf, 1.0 kg/ha): 27.5 cm
- Plant height relative (rye; leaf, 1.0 kg/ha): 93.2
- Plant height (rye; leaf, 2.0 kg/ha): 27.5 cm
- Plant height relative (rye; leaf, 2.0 kg/ha): 93.2
- Plant height (rye; leaf, 4.0 kg/ha): 29.0 cm
- Plant height relative (rye; leaf, 4.0 kg/ha): 98.3
- Plant height (rye; soil, 0.5 kg/ha): 28.0 cm
- Plant height relative (rye; soil, 0.5 kg/ha): 96.6
- Plant height (rye; soil, 1.0 kg/ha): 27.5 cm
- Plant height relative (rye; soil, 1.0 kg/ha): 94.8
- Plant height (rye; soil, 2.0 kg/ha): 28.0 cm
- Plant height relative (rye; soil, 2.0 kg/ha): 96.6
- Plant height (rye; soil, 6.0 kg/ha): 26.5 cm
- Plant height relative (rye; soil, 6.0 kg/ha): 91.4
- Plant height (sunflowers; leaf, 1.5 kg/ha): 38.0 cm
- Plant height relative (sunflowers; leaf, 1.5 kg/ha): 99
- Plant height (sunflowers; leaf, 6.0 kg/ha): 32.5 cm
- Plant height relative (sunflowers; leaf, 6.0 kg/ha): 85
- Plant height (sunflowers; soil, 3.0 kg/ha): 40.0 cm
- Plant height relative (sunflowers; soil, 3.0 kg/ha): 110
- Plant height (sunflowers; soil, 12.0 kg/ha): 36.0 cm
- Plant height relative (sunflowers; soil, 12.0 kg/ha): 99
- Growth height (Hordeum vulgare; 0.5 kg/ha): 36 cm
- Growth height (Hordeum vulgare; 1.0 kg/ha): 31 cm
- Growth height (Hordeum vulgare; 2.0 kg/ha): 33 cm
- Growth height (Triticum aestivum; leaf treatment, 0.5 kg/ha): 40 cm
- Growth height (Triticum aestivum; leaf treatment, 1.0 kg/ha): 40 cm
- Growth height (Triticum aestivum; leaf treatment, 2.0 kg/ha): 40 cm
- Growth height (Triticum aestivum; soil treatment, 0.5 kg/ha): 40 cm
- Growth height (Triticum aestivum; soil treatment, 1.0 kg/ha): 40 cm
- Growth height (Triticum aestivum; soil treatment, 2.0 kg/ha): 33 cm
- Shoot length (cotton; 0.3 ppm): 36.2 cm
- No. of squares per vessel (3 plants) (cotton; 0.3 ppm): 0
- Shoot length rel. (cotton; 0.3 ppm): 76.7
- Shoot length (cotton; 1.25 ppm): 34.8 cm
- No. of squares per vessel (3 plants) (cotton; 1.25 ppm): 0
- Shoot length rel. (cotton; 1.25 ppm): 73.8
- buds / squares (cotton; 4 week growth period): withered in the nascent stage and dropped off

SMILES: C[N+](C)(C)CCCl [[ClCH2CH2N(CH3⊕)3]Cl⊖, reference compound]
- Growth height (Arachis hypogaea; 0.5 kg/ha): 16 cm
- growth height relative (Arachis hypogaea; 0.5 kg/ha): 100
- Growth height (Arachis hypogaea; 2.0 kg/ha): 14 cm
- growth height relative (Arachis hypogaea; 2.0 kg/ha): 87
- Growth height (Cynodon dactylon; 0.5 kg/ha): 9 cm
- growth height relative (Cynodon dactylon; 0.5 kg/ha): 82
- Growth height (Cynodon dactylon; 2.0 kg/ha): 9 cm
- growth height relative (Cynodon dactylon; 2.0 kg/ha): 82
- Growth height (Euphorbia geniculata; 0.25 kg/ha): 10 cm
- growth height relative (Euphorbia geniculata; 0.25 kg/ha): 91
- Growth height (Euphorbia geniculata; 0.5 kg/ha): 10 cm
- growth height relative (Euphorbia geniculata; 0.5 kg/ha): 91
- Growth height (Euphorbia geniculata; 1.0 kg/ha): 9 cm
- growth height relative (Euphorbia geniculata; 1.0 kg/ha): 82

From patent publication US4257941A, “Polycyclic nitrogen-containing compounds” (BASF Aktiengesellschaft, priority 1976, dated 1981)
